Measurements: ChEMBL document CHEMBL1201862, “PubChem BioAssay data set” (2004)
Activity calls are given as the source filed them.

How the values were obtained:
[1] = biological target: FAD-linked sulfhydryl oxidase ALR (Homo sapiens, UniProt P55789); assay: inhibitors of human ALR sulfhydryl oxidase, dose response, biochemical, H2O2 detection, luminescence, cherry-pick (AID 493248)
Large T antigen = Large T antigen (Simian virus 40, UniProt P03070); format: functional, Betapolyomavirus macacae;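 note: Confirmatory-stage PubChem screen for compounds that inhibit SV40 T antigen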
[2] = cytotoxicity toward NIH3T3 fibroblasts, dose response, counter-screen, cell-based, ATP luminescence, mouse fibroblasts (AID 2010); format: functional;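 note: cells exposed to compound for about 90 hours before reading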
[3] = inhibitors of intracellular T. cruzi replication, confirmation, NIH3T3 host cells, beta-gal luminescence (AID 2044); format: functional, cell-based;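 note: intracellular parasites grown in NIH/3T3 mouse fibroblasts as host cells; luminescent beta-galactosidase reporter signal from transgenic T. cruzi replicating inside host cells; inhibitors lower the luminescence signal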
[4] = biological target: T1, Heat shock factor protein 1 (Mus musculus, UniProt P38532); assay: inhibition of MG132-induced HSE-luciferase signal, confirmation, cell-based, NIH3T3, luminescence, dose retest (AID 2382); format: functional;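 note: NIH3T3 fibroblasts with HSF1-driven luciferase reporter stressed by proteasome inhibitor MG132; luminescence from HSF1-driven luciferase expression after 8 hours of MG132 stress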
T1 sequence (P38532 whole entry): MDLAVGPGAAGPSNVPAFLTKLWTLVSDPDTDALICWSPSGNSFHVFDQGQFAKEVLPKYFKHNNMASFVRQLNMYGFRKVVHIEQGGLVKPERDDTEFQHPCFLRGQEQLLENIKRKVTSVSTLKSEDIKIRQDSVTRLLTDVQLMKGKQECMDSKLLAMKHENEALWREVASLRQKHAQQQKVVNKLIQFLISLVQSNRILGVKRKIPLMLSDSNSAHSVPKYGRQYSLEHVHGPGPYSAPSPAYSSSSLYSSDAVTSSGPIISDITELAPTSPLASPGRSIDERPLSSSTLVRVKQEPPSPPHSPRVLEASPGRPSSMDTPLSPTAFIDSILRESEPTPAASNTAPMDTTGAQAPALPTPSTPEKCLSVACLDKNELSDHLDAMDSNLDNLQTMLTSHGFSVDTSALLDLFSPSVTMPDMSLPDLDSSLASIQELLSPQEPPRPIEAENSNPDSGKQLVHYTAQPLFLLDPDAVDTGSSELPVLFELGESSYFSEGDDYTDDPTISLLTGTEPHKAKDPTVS

[5] = biological target: T1, Heat shock factor protein 1; assay: HSF1 potentiators in luciferase reporter cells, confirmation, cell-based, NIH3T3, luminescence, dose retest (AID 435004); format: functional;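 note: stress induced by proteasome inhibitor MG132 added 30 min after compound; luciferase reporter driven by HSF1 response element in NIH3T3 cells; actives raise luminescence as potentiators of the MG132 stress response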
[6] = inhibitors of SNCA 5'UTR-driven reporter translation, confirmation, H4 neuroglioma cells, luminescence (AID 1988); format: functional, cell-based
[7] = inhibitors of firefly luciferase expression or activity, dose response, H4 neuroglioma cells, luminescence (AID 1990); format: functional, cell-based
[8] = Luminescence Cell-Based Dose Response HTS to Identify Inhibitors of 5'UTR Stem-Loop Driven Prion Protein mRNA Translation in H4 Neuroglioblastoma Cells. [Related pubchem assays: 1827 (Project Summary), 1813 (Primary HTS)]; format: functional
[9] = biological target: T2, Rac GTPase-activating protein 1 (Homo sapiens, UniProt Q9H0H5); assay: MgcRacGAP GTPase-activating activity inhibitors, confirmation, biochemical, ADP Hunter fluorescence, primary and confirmatory (AID 624330); format: functional
T2 sequence (Q9H0H5 whole entry): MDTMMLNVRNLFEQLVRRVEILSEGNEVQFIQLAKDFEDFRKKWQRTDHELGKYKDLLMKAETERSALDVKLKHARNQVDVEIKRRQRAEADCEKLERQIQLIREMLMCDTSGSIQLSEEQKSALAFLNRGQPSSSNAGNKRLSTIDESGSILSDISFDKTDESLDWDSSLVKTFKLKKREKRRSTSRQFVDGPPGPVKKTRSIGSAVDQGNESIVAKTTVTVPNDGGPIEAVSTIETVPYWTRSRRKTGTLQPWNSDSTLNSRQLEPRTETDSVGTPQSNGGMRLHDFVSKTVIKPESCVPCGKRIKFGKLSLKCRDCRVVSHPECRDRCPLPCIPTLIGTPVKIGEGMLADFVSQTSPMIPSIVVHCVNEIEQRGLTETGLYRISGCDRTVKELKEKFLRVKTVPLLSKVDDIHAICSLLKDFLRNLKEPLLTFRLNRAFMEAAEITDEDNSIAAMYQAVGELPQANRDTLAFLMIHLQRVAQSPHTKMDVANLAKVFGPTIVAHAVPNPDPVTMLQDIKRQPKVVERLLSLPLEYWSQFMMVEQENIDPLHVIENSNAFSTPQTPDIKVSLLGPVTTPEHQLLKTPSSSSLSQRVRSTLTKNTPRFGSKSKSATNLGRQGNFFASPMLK

[10] = HEp-2 cell cytotoxicity, dose response, cytotoxicity control for RSV inhibitor project, HTS (AID 2410); format: functional; settings: human respiratory syncytial virus
[11] = Luminescence Cell-Based Dose Retest to Confirm Inhibitors of Cancer Stem Cells. [Related pubchem assays (depositor defined):AID2717, AID2721]; format: functional; settings: Homo sapiens
[12] = Luminescence Cell-Based Dose Response HTS to Identify Activators of Luciferase Translation or Activity in H4 […] Cells. [Related pubchem assays: 1829 (Project Summary), 1814 (Primary HTS)]; format: functional
H4 = assay: Luminescence Cell-Based Dose Response HTS to Identify Activators of 5'UTR Stem-Loop Driven Prion Protein mRNA Translation in H4 Neuroglioblastoma Cells. [Related pubchem assays: 1829 (Project Summary), 1814 (Primary HTS)]; format: functional; settings: Homo sapiens
Cytochrome P450 2C19 = Cytochrome P450 2C19 (Homo sapiens, UniProt P33261); assay: Cytochrome panel assay with activity outcomes. Panel member name: p450-cyp2c19 Compounds with AC50 equal or less than 10 uM are considered active; format: functional; settings: read-out: AC50
Sequence of Cytochrome P450 2C19 (P33261 whole entry): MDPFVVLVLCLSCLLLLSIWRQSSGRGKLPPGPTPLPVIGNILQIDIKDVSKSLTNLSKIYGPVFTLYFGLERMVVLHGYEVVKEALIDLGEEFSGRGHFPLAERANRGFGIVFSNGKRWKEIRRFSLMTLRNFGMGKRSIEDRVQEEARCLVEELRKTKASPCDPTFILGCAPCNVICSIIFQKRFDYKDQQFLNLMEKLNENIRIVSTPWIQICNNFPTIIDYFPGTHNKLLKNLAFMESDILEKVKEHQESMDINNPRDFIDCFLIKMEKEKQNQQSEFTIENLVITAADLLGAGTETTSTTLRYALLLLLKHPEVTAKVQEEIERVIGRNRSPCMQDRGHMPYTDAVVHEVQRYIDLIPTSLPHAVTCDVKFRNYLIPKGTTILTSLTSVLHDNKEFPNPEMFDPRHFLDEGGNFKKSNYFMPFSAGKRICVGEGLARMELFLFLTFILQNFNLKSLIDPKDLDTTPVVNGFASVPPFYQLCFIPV

Sequence of Large T antigen (P03070 whole entry): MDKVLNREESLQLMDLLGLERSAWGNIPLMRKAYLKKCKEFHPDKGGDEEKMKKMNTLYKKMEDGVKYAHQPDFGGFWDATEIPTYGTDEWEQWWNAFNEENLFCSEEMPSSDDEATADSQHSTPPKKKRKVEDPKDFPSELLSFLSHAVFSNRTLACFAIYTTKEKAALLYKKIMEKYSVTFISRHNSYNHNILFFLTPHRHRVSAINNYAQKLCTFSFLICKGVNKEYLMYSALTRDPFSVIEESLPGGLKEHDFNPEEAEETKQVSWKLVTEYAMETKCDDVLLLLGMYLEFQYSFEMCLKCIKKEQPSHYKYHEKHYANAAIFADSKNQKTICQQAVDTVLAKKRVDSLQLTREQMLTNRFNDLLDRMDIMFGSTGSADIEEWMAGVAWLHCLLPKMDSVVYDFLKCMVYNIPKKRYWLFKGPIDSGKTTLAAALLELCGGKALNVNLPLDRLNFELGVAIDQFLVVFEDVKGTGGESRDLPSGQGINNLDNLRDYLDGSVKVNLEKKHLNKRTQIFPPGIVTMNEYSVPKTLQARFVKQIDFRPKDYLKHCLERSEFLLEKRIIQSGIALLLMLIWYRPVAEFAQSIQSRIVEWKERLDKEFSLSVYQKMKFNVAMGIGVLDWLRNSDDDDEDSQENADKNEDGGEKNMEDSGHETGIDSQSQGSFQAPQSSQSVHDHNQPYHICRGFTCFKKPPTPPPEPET
Sequence of FAD-linked sulfhydryl oxidase ALR (P55789 whole entry): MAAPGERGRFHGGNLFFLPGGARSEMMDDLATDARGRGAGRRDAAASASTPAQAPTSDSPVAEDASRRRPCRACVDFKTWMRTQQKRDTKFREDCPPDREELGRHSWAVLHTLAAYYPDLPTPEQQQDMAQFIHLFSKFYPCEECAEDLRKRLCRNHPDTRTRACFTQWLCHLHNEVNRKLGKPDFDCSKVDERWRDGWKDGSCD

## NNC(=O)c1ccc(O)cc1
[1]
  AC50: 4.28 µM (active)

## CN(C)c1ccc(N2C(=O)CC(Nc3ccc(N4CCOCC4)cc3)C2=O)cc1 (stereo not given)
Large T antigen
  IC50: 12.9 µM (active)

## O=Nc1ccc(NOC(=O)c2ccccc2Br)cc1
Large T antigen
  IC50: 30.1 µM (active)

## Cc1cccc(NC(=O)c2sc(-c3ccccc3)nc2-c2ccc([N+](=O)[O-])cc2)c1
[2]
  EC50: > 60 µM (not active)
[3]
  EC50: 1.53 µM (active)
[4]
  EC50: > 195 µM (not active)

## Cc1ccn2c(NC(C)(C)C)c(-c3cccs3)nc2c1
[1]
  AC50: 1.58 µM (active)

## O=C(CN(CC1CCCO1)S(=O)(=O)c1ccc(S(=O)(=O)NC2CC2)cc1)Nc1ccccc1 (stereo not given)
[5]
  EC50: > 260 µM (inactive)

## Nc1[nH]cnc2nc(SCCOc3ccc(Cl)cc3)nc1-2
[4]
  EC50: > 195 µM (not active)

## CN(C)c1ccc(C(C[N+](=O)[O-])c2c(N)n(C)c(=O)n(C)c2=O)c(F)c1C#N (stereo not given)
[5]
  EC50: > 260 µM (inactive)

## COc1ccc(CCNC(=O)c2cccc([N+](=O)[O-])c2)cc1OC
[4]
  EC50: 2.26 µM (active)

## O=C(C1CCCN(S(=O)(=O)c2c[nH]cn2)C1)N1CCN(c2ccc(Cl)cc2)CC1 (stereo not given)
[1]
  AC50: > 100 µM (inactive)

## CC1Oc2ccccc2N(CC(=O)NCc2ccccc2)C1=O (stereo not given)
[4]
  EC50: > 195 µM (not active)

## Cc1ccc(C)c(Cn2nnc3c(=O)[nH]c(C4CCN(C(=O)c5cccs5)CC4)nc32)c1
[5]
  EC50: > 260 µM (inactive)

## N#CCCn1cc(C(=O)Nc2ccc([N+](=O)[O-])cc2)c(-c2ccccc2)n1
[4]
  EC50: > 195 µM (not active)

## CCc1c(C)sc(NC(=O)CSc2nc3c(c(C(F)(F)F)n2)CCc2ccccc2-3)c1C#N
[6]
  EC50: 18.8 µM (active)
[7]
  EC50: > 120 µM (not active)
[8]
  EC50: > 120 µM (not active)

## Cc1nnc(SCc2ccccc2)n1CC1CCCO1 (stereo not given)
Large T antigen
  IC50: > 100 µM (active)

## CCOC(=O)c1c(CN(C)C)n(C)c2ccc(OC(C)=O)cc12
[4]
  EC50: > 195 µM (not active)

## CCOc1cc(C(c2c(O)nc(SC)nc2O)c2c(O)nc(SC)nc2O)ccc1O
Large T antigen
  IC50: > 100 µM (active)

## [O-][n+]1onc2c3c4c(n(O)c3ccc21)CCCC4
[1]
  AC50: 0.497 µM (active)

## COc1ccc(/C=C2\C(=O)ON=C2c2ccccc2)cc1
[1]
  AC50: 66.4 µM (active)

## Cc1oc2c(C)c3oc(=O)c(CCC(=O)N4C[C@H]5C[C@@H](C4)c4cccc(=O)n4C5)c(C)c3cc2c1C
[6]
  EC50: 13.5 µM (active)
[7]
  EC50: 65.1 µM (active)
[8]
  EC50: > 120 µM (not active)

## O=S(=O)(Nc1ccncc1)c1ccc(Cl)cc1
[4]
  EC50: > 195 µM (not active)

## Cc1ccc(CCNC(=O)C2CCN(S(=O)(=O)c3ccc4c(c3)NC(=O)CO4)CC2)cc1
[5]
  EC50: > 260 µM (inactive)

## Cc1ccn2c(NC3CCCCC3)c(C(C)C)nc2c1
[1]
  AC50: 2.82 µM (active)

## CCOC(=O)c1nnsc1Nc1ccc(C)c(C)c1
[5]
  EC50: 104 µM (active)

## COC(=O)c1cnc(N2CCCN(S(=O)(=O)c3ccc(C(F)(F)F)cc3)CC2)nc1C(F)(F)F
[2]
  EC50: > 60 µM (not active)
[3]
  EC50: 3.03 µM (active)
[5]
  EC50: > 260 µM (inactive)

## CCN(Cc1ccncc1)Cc1ccc(OC)c(OC)c1
[9]
  IC50: 190 µM (active)

## COc1cccc(CNc2nc3ccccc3n2C(C)C)c1O
[5]
  EC50: > 260 µM (inactive)

## Cc1nc2sccn2c(=O)c1S(=O)(=O)Nc1ccc(N2CCOCC2)c(Cl)c1
[4]
  EC50: 92.2 µM (active)

## CN(C)c1cccc(C(=O)NC2CCCCCC2)c1
[1]
  AC50: 8.08 µM (active)

## Cc1ccc(OCCC(=O)N2CCN(c3ccc(O)cc3)CC2)cc1
Large T antigen
  IC50: 11.8 µM (active)

## Cc1ccc(-n2nc3c(=O)n(CCCC(=O)NCc4cccc(Cl)c4)nc(C)c3c2C)cc1
[6]
  EC50: 61.6 µM (active)
[7]
  EC50: 14.1 µM (active)
[10]
  CC50: 28.4 µM (active)
[8]
  EC50: 74.3 µM (active)

## Cc1cccc(Oc2ccc3c(c2)cc(C(=O)O)n3C)c1
[1]
  AC50: 0.211 µM (active)

## CC(=O)Nc1ccc(C2=NN(Cc3nnc(-c4ccccc4)o3)C(=O)SC2)cc1
[5]
  EC50: > 260 µM (inactive)

## Cc1sc2ncnc(N3CCC(C(=O)N(C)CC(=O)Nc4ccc(Cl)c(C(F)(F)F)c4)CC3)c2c1C
[11]
  AC50: 3.41 µM (active)
[6]
  EC50: 10.3 µM (active)
[7]
  EC50: 7.86 µM (active)
[2]
  EC50: > 60 µM (not active)
[3]
  EC50: 2.73 µM (active)
[8]
  EC50: 13 µM (active)

## CC(C)(C)NC(=O)COC(=O)c1ccccc1Nc1ccc(SC(F)F)cc1
[12]
  EC50: 23.9 µM (active)
H4
  EC50: 12.8 µM (active)

## COCCCNc1nc(S)nc2cc(OC)c(OC)cc12
[9]
  IC50: 69.7 µM (active)

## O=C(Cc1coc2cc(O)ccc12)N1CCN(S(=O)(=O)c2ccc(Br)cc2)CC1
[9]
  IC50: 21.6 µM (active)

## O=C(CN1CCN(c2ccc(O)cc2)CC1)Nc1ccc(S(=O)(=O)N2CCCC2)cc1
[1]
  AC50: 0.699 µM (active)

## CN(C)c1ccc(CNC(=O)C2CCN(S(=O)(=O)c3ccc4c(c3)CCCC(=O)N4)CC2)cc1
[1]
  AC50: 5.99 µM (active)

## COc1ccc(C2SCC(=O)N2c2ccc(F)cc2)cc1 (stereo not given)
[1]
  AC50: 0.049 µM (active)

## CC(C(=O)NC(=O)NC1CCCCC1)N1CCN(c2ccc(O)cc2)CC1 (stereo not given)
[9]
  IC50: 55.5 µM (active)

## COCC/N=C1/Sc2nc3c(C)cccc3cc2CN1Cc1ccco1
Cytochrome P450 2C19
  AC50: 2.51 µM (inconclusive)
[10]
  CC50: 39.2 µM (active)
Large T antigen
  IC50: 67.5 µM (active)

## COc1ccc(/C=N/NC(=O)c2cc[n+]([O-])cc2)cc1O
[9]
  IC50: 38.2 µM (active)

## COc1ccc(/C=N/Nc2nc(N3CCCC3)nc(N3CCCC3)n2)cc1O
[9]
  IC50: 62.2 µM (active)
Large T antigen
  IC50: 10.2 µM (active)

## COCCCNC(=S)N/N=C/c1ccc(O)cc1O
Large T antigen
  IC50: 9.14 µM (active)

## C=CCn1c(CNc2ccc(C)cc2)nnc1SCC(=O)N/N=C/c1ccc(O)cc1O
[11]
  AC50: 4.31 µM (active)
[9]
  IC50: 85.1 µM (active)

## COc1cccc2c(N/N=C/c3ccc(O)c(O)c3)cc(C)nc12
Large T antigen
  IC50: 23.8 µM (active)

## CCN(CC)c1ccc(/C=N\NC(N)=O)cc1
[9]
  IC50: 50.7 µM (active)
[1]
  AC50: 0.825 µM (active)
